The source of these data is article PMC12363518, “Azobenzene-Modified Temperature-Responsive Short Elastin-like Peptides for Photo-Controlled Phase Transition” (ACS Synthetic Biology, 2025).

Structures are written as SMILES. Numbered stars: 1 amine (or outer) side, 2 acyl side, 3 side chain; on linkers, the order of the positions; unused ones are H or OH. Bridge positions count the residues as written; N and C are the ends. Square brackets hold non-standard residues; d marks the D form. Peptide text beside a SMILES is read from it. I, II: the chains in the order shown. X1 = O=C(c1ccc(N=Nc2ccc(C(=O)[*:2])cc2)cc1)[*:1]; X2 = O=C(c1ccc(N=Nc2ccc(N[*:1])cc2)cc1)[*:2]; X3 = c1cc(N[*:1])ccc1N=Nc1ccc(N[*:2])cc1

A short description of series [1]: Water solubility (observation). In kind it is physicochemical. As to conditions: qualitative observation.
Assay in series [2]: not given
This is another data set of the same source.

The nature of series [3]: Turbidity measurement (OD600) of temperature-dependent phase separation, Tt. The series is classed as physicochemical. Conditions: even at 2.38 mM (5.00 mg/mL) in PBS; turbidity OD600. Here is the method: The ability of the ELP–azobenzene conjugates to self-assemble was investigated by using turbidity measurements. In addition, we evaluated whether the photoisomerization of the azobenzene moieties induced differences in the aggregation ability of these analogues. Each peptide analogue was dissolved in PBS at different concentrations according to its water solubility. To quantitatively evaluate the aggregation ability, the transition temperature (T t) of the peptides was calculated from the change in optical density at a wavelength of 600 nm (OD600) associated with the increasing temperature (Table and Figure ).
The temperature-dependent self-assembly property of synthesized peptides was evaluated by using a JASCO V-660 spectral photometer (JASCO Co.). Each peptide was dissolved in PBS buffer or phosphate buffer solutions at various concentrations. Three types of phosphate buffers with the same ionic strength (μ = 0.100) but different pH (pH 7.4, 2.1, and 11.5) were prepared: phosphate buffer (pH 7.4, 29.4 mM Na2HPO4, 11.7 mM NaH2PO4), phosphate buffer (pH 2.1, 10.0 mM NaH2PO4, 10.5 mM phosphoric acid), and phosphate buffer (pH 11.5, 9.58 mM Na3PO4, 14.2 mM Na2HPO4). Turbidity was measured at 600 nm with increasing or decreasing temperature at a rate of 0.5 °C/min from 5 °C. The measurements were performed for the dark-adapted solution and after successive irradiation with UV light, visible light, and UV light. Each assay was repeated three times with different peptide solutions that were prepared separately. The phase separation property was described by the phase transition temperature (T t), which is the temperature at which the turbidity of the solution reaches half its maximum value.

Series [4] in a line: Particle size distribution by dynamic light scattering (DLS). In kind it is physicochemical. As to conditions: PBS.

The molecule `CC(C)[C@H](NC(=O)CNC(=O)[C@@H]1CCCN1C(=O)[C@H](Cc1ccccc1)NC(=O)CNC(=O)[C@@H](NC(=O)CNC(=O)[C@@H]1CCCN1C(=O)[C@H](Cc1ccccc1)NC(=O)c1ccc(N=Nc2ccc(NC(=O)CNC(=O)[C@@H](NC(=O)CNC(=O)[C@@H]3CCCN3C(=O)[C@H](Cc3ccccc3)NC(=O)CNC(=O)[C@@H](NC(=O)CNC(=O)[C@@H]3CCCN3C(=O)[C@@H](N)Cc3ccccc3)C(C)C)C(C)C)cc2)cc1)C(C)C)C(=O)NCC(N)=O` [F2-Azb-F2-NH2] (H-FPGVGFPGVG[X2]FPGVGFPGVG-NH2) gave a peak wavelength n–π* of 450 nm. In addition, the water solubility result in series [1] was “low water solubility”. In addition, in series [2], the peak wavelength π–π* was 356 nm.

`CC(C)[C@H](NC(=O)CNC(=O)[C@@H]1CCCN1C(=O)[C@H](Cc1ccccc1)NC(=O)CNC(=O)[C@@H](NC(=O)CNC(=O)[C@@H]1CCCN1C(=O)[C@H](Cc1ccccc1)NC(=O)c1ccc(N=Nc2ccc(NC(=O)CNC(=O)[C@@H](NC(=O)CNC(=O)[C@@H]3CCCN3C(=O)[C@H](Cc3ccccc3)NC(=O)CNC(=O)[C@@H](NC(=O)CNC(=O)[C@@H]3CCCN3C(=O)[C@@H](N)Cc3ccccc3)C(C)C)C(C)C)cc2)cc1)C(C)C)C(=O)NCC(=O)O` [F2-Azb-F2] (H-FPGVGFPGVG[X2]FPGVGFPGVG-OH) had a peak wavelength n–π* of 444 nm. Besides, the water solubility entry in series [1] is reported as “low water solubility”. In series [2], this molecule registered a peak wavelength π–π* of 354 nm.

As to `CC(C)[C@H](NC(=O)CNC(=O)[C@@H]1CCCN1C(=O)[C@H](Cc1ccccc1)NC(=O)CNC(=O)[C@@H](NC(=O)CNC(=O)[C@@H]1CCCN1C(=O)[C@H](Cc1ccccc1)NC(=O)c1ccc(N=Nc2ccc(C(=O)N[C@@H](Cc3ccccc3)C(=O)N3CCC[C@H]3C(=O)NCC(=O)N[C@H](C(=O)NCC(=O)N[C@@H](Cc3ccccc3)C(=O)N3CCC[C@H]3C(=O)NCC(=O)N[C@H](C(=O)NCC(=O)O)C(C)C)C(C)C)cc2)cc1)C(C)C)C(=O)NCC(=O)O` [Azb-2(F2)] (I: FPGVGFPGVG-OH / II: FPGVGFPGVG-OH; linker I:N-II:N via X1), the “phase separation in PBS” value in series [3] was “did not exhibit phase separation”. In series [4], the “self-assembly in dark-adapted solution (DLS)” value is “did not exhibit self-assembly”.

`CC(C)[C@H](NC(=O)CNC(=O)[C@@H]1CCCN1C(=O)[C@H](Cc1ccccc1)NC(=O)CNC(=O)[C@@H](NC(=O)CNC(=O)[C@@H]1CCCN1C(=O)[C@@H](N)Cc1ccccc1)C(C)C)C(=O)NCC(=O)N[C@@H](CC(=O)O)C(=O)Nc1ccc(N=Nc2ccc(NC(=O)[C@H](CC(=O)O)NC(=O)CNC(=O)[C@@H](NC(=O)CNC(=O)[C@@H]3CCCN3C(=O)[C@H](Cc3ccccc3)NC(=O)CNC(=O)[C@@H](NC(=O)CNC(=O)[C@@H]3CCCN3C(=O)[C@@H](N)Cc3ccccc3)C(C)C)C(C)C)cc2)cc1` (I: H-FPGVGFPGVGD / II: H-FPGVGFPGVGD; linker I:C-II:C via X3) returned a peak wavelength n–π* of 450 nm. The peak wavelength π–π* in series [2] turned out to be 364 nm.
